Drawing on BindingDB's records for doi:10.1016/0014-2999(96)00088-x (University Clinic For Psychiatry, 1996), this text covers Ki for 14 molecules.

The target of assay [1] is Gamma-aminobutyric acid receptor subunit alpha-4 (Homo sapiens, UniProt P48169).
Assay [2] deals with T1, Gamma-aminobutyric acid receptor subunit alpha-1 (Homo sapiens, UniProt P14867).
T1 sequence (P14867 whole entry): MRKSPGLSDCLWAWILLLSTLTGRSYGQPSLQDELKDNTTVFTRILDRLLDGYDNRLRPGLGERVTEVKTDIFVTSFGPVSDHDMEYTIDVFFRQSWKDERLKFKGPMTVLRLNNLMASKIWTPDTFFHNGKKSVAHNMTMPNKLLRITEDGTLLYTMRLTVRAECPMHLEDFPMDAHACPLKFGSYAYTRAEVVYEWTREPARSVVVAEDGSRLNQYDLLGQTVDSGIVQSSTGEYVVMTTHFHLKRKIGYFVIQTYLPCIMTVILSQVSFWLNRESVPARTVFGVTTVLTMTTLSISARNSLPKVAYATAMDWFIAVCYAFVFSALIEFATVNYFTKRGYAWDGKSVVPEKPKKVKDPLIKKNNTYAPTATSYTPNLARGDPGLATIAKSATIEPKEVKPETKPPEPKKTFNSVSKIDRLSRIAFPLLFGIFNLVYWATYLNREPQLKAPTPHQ

Where “and” joins values, the source holds several entries; their conditions need not be identical. Equal values may be shown once. Some results are limits rather than exact numbers.

Gamma-aminobutyric acid receptor subunit alpha-4, sequence (P48169 whole entry): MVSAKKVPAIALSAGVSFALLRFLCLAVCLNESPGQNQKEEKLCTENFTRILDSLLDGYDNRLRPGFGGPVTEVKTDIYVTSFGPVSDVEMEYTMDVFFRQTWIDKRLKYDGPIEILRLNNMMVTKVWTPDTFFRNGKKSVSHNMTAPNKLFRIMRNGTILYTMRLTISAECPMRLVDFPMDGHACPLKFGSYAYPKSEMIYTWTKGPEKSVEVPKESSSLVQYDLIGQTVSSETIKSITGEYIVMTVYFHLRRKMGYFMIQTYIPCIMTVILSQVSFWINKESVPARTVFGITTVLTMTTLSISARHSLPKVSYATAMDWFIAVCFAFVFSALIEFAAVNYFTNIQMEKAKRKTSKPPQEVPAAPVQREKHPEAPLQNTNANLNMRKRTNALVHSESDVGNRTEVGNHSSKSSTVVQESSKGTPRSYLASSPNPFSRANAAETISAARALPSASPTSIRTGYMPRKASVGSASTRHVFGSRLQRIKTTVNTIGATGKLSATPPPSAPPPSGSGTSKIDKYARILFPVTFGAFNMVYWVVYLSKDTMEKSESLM

For the molecule `CCCOC(=O)c1cc2c(cn1)[nH]c1ccccc12` [CAS_123662], the Ki was determined as 922 nM in assay [1] and 7.1 nM in assay [2].
The matching figures for `CNC(=O)c1cc2c(cn1)[nH]c1ccccc12` [CAS_4375]: > 10000 nM and 160 nM.
`CCOC(=O)c1ncn2c1CN(C)C(=O)c1cc(N=[N+]=[N-])ccc1-2` [RO-154513] showed an inhibition constant Ki in assay [2] of 8.1 nM.
Consider `COc1ccc(-n2[nH]c3c4c(ncc3c2=O)CCCCC4)cc1` [CGS-20625], for which the Ki in assay [1] was 22.4 nM and 77 nM; in assay [2], 0.15 nM.
In the case of `CCOC(=O)c1cc2c(cn1)[nH]c1ccccc12`, the Ki in assay [2] was found to be 0.6 nM.
For `O=c1c2cnc3ccccc3c2[nH]n1-c1ccccc1`, the results for the Ki in assay [1] and in assay [2] were 11.9 nM and 0.11 nM, respectively.
For `Cc1nnc2ccc(-c3cccc(C(F)(F)F)c3)nn12`, the results for the Ki in assay [1] and in assay [2] were > 10000 nM and 65 nM, respectively.
As to `Cc1ccc(-c2nc3ccc(C)cn3c2CC(=O)N(C)C)cc1` [Ambien], the Ki in assay [1] is > 10000 nM.
In the case of `CCc1c(C(=O)OC)ncc2[nH]c3cc(OC)c(OC)cc3c12` [NSC_104999], the Ki is 11.3 nM and 20 nM in assay [1]; 7.5 nM in assay [2].
Turning to `O=c1c2cnc3ccccc3c2[nH]n1-c1ccc(Cl)cc1`, the results for the Ki in assay [1] and in assay [2] were 59 nM and 0.26 nM, respectively.
The corresponding values for `COc1ccc(-n2[nH]c3c(cnc4ccccc43)c2=O)cc1` [2-(4-Methoxy-phenyl)-2,5-dihydro-pyrazolo[4,3-c]quinolin-3-one (CGS 9895)] are 4 nM and 0.09 nM.
As to `COCc1c(C(=O)OC(C)C)ncc2[nH]c3ccc(OCc4ccccc4)cc3c12`, in assay [1], the Ki came to 1060 nM.
`CC(C)(C)OC(=O)c1ncn2c1C1CCCN1C(=O)c1c(Br)cccc1-2` (centres undefined) [8-Bromo-7-oxo-3b,4,5,6-tetrahydro-7H-2,6a,11b-triaza-benzo[g]cyclopenta[e]azulene-3-carboxylic acid tert-butyl ester]: the Ki is 36 nM and 22.5 nM in assay [1]; 0.45 nM in assay [2].
For the molecule `COC(=O)c1cc2c(cn1)[nH]c1ccccc12`, the Ki worked out at 640 nM in assay [1] and 0.5 nM in assay [2].

For orientation: Ki means the equilibrium dissociation constant of an inhibitor or competing ligand from its target.
